What was measured:
[1] = system: animal models of depression; conditions: without psychotomimetic side effects and abuse liability; cited from earlier work
[2] = system: human peripheral blood lymphocytes (HPBL); conditions: definitive assay; non-activated 4- and 20-hour treatment conditions; any dose
Experimental: The clastogenic potential of esketamine was evaluated in the in vitro mammalian chromosome aberration test using human peripheral blood lymphocytes (HPBL) in both the absence and presence of an induced metabolic activation system (the 9000 g supernatant [S9] microsomal fraction of liver homogenate from rats exposed to Aroclor-1254).
The study was conducted in 2 phases, with a preliminary toxicity test used to determine the appropriate concentrations for the definitive chromosomal aberration assay. Water was used as a negative (vehicle) control. Toxicity (defined as ≥45% reduction in MI relative to the vehicle control) was evaluated at 9 concentrations, ranging from 0.0238 to 238 μg/ml, after exposure of HPBL to esketamine for 20 hours in the absence of S9 activation, or for 4 hours, either in the presence or absence of S9 activation, followed by a 16-hour recovery period.
The definitive chromosome aberration assay evaluated HPBL cells after exposure to esketamine for 20 hours in the absence of S9 activation, or for 4 hours, either in the presence of absence of S9 activation, followed by a 16-hour recovery. Positive controls for chromosomal aberrations in non-activated and S9-activated evaluations, respectively, consisted of mitomycin C (MMC, 0.6 and 0.3 μg/mL for the 4- and 20-hour exposures, respectively) and cyclophosphamide (CP, 2.5, 5, and 7.5 μg/mL). […]

male Sprague Dawley rats = assay: 7-day forced swim test; assay type: in vivo; conditions: intraperitoneal
Experimental: Groups of, 6-7 week old, male Sprague Dawley rats were administered esketamine by intraperitoneal injection and their behavioral despair assessed by a forced swim test. The animals, in cohorts of 10, were administered either a single dose of 15 mg/kg esketamine, 7 daily doses of either 7.5 or 15 mg/kg esketamine or a vehicle control, and the test performed 30 minutes after dosing. Statistical evaluation was performed using an ordinary One-Way ANOVA, t Test and an Uncorrected Fisher's LSD comparisons test.

[3] = system: healthy male and female subjects; assay: Single dose crossover study in healthy volunteers: treatment-emergent adverse events; assay type: in vivo, human
Source text: A total of 128 TEAEs (treatment-emergent adverse event) were reported by 15 of 16 (94%) subjects of which 79 TEAEs reported by 14 of 16 (88%) subjects were to be related to the study drug. Overall, a total of 14 of 128 TEAEs reported by 4 (25%) subjects were of moderate severity and 114 of 128 TEAEs reported by 15 (94%) subjects were of mild severity. […] The most frequently occurring adverse events (reported more than twice) were headache, dizziness, hypokinesia, feeling abnormal, fatigue, euphoric mood inappropriate affect, nausea and hyperhidrosis. Table 4 presents the frequency of the most frequently reported related TEAEs as a percentage of the subjects that experienced an adverse effect per treatment.

liver of Crl:CD(SD) rats = assay: In vivo single cell gel electrophoresis (comet) assay in liver; conditions: male and female rats; oral gavage

## CN[C@@]1(c2ccccc2Cl)CCCCC1=O [(R)-ketamine, (2R)-2-(2-Chlorophenyl)-2-(methylamino)cyclohexanone]
[1]
  antidepressant effects compared with esketamine: greater potency and longer-lasting antidepressant effects

## CN[C@]1(c2ccccc2Cl)CCCCC1=O [esketamine, (2S)-2-(2-Chlorophenyl)-2-(methylamino)cyclohexanone]
[2]
  cytotoxicity (≥45% reduction in mitotic index relative to the vehicle control): not observed
Male Sprague Dawley rats
  antidepressant-like effect of continuous 7-day treatment vs single acute dose at the same dose levels: stronger antidepressant-like effect
[3]; 0.3 mg/kg iv
  Dizziness, related TEAE, subjects: 6%
  Euphoric mood, related TEAE, subjects: 19%
  Fatigue, related TEAE, subjects: 6%
  Feeling abnormal, related TEAE, subjects: 13%
  Headache, related TEAE, subjects: 19%
  Hypokinesia, related TEAE, subjects: 6%
  Inappropriate affect, related TEAE, subjects: 6%
  Nausea, related TEAE, subjects: 6%
[3]; 20 mg oral solution
  Feeling abnormal, related TEAE, subjects: 19%
  Headache, related TEAE, subjects: 19%
  Inappropriate affect, related TEAE, subjects: 6%
[3]; 20 mg oral tablet
  Dizziness, related TEAE, subjects: 13%
  Fatigue, related TEAE, subjects: 7%
  Feeling abnormal, related TEAE, subjects: 7%
  Hyperhidrosis, related TEAE, subjects: 7%
[3]; 100 mg oral tablet
  Dizziness, related TEAE, subjects: 13%
  Euphoric mood, related TEAE, subjects: 13%
  Feeling abnormal, related TEAE, subjects: 20%
  Headache, related TEAE, subjects: 13%
  Hyperhidrosis, related TEAE, subjects: 7%
  Hypokinesia, related TEAE, subjects: 13%
  Inappropriate affect, related TEAE, subjects: 7%
  Nausea, related TEAE, subjects: 20%
[3]; one subject (Subject 11) of 16, after first treatment period
  AE leading to withdrawal from the study: mild hyperbilirubinemia
Liver of Crl:CD(SD) rats
  DNA strand breaks in the liver: evidence of causing an increase in DNA strand breaks
